Assay results: patent US6872690B2, “Herbicidal 2-alkynyl-pyri (mi) dines” (WYETH, priority 2001, dated 2005)

Experiments:
Type in all cases: in vivo
Abutilon theophrasti [1] = test: Pre-emergence test; details: 3 weeks after treatment
Outline: (§1)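 Freshly sown seeds in horticultural loam were sprayed with compound dissolved in acetone with 0.4% w/w alkylphenol/ethylene oxide surfactant, diluted with water, at 0.013, 0.025, 0.100 or 0.400 kg a.i./ha in 900 L/ha. Untreated sown soil served as control; pots were rated 2 to 4 weeks after treatment.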

Galium aparine [2] = test: Pre-emergence test; details: 3 weeks after treatment
Outline: as §1

Digitaria sanguinalis [3] = test: Pre-emergence test; details: 3 weeks after treatment
Outline: as §1

Matricaria inodora [4] = test: Pre-emergence test; details: 3 weeks after treatment
Outline: as §1

Triticum aestivum [5] = test: Pre-emergence test; details: 3 weeks after treatment
Outline: as §1

Alopecurus myosuroides [6] = test: Pre-emergence test; details: 3 weeks after treatment
Outline: as §1

Cassia obtusifolia [7] = test: Pre-emergence test; details: 3 weeks after treatment
Outline: as §1

Ipomoea hederacea [8] = test: Pre-emergence test; details: 3 weeks after treatment
Outline: as §1

Lamium purpureum = test: Pre-emergence test; details: 3 weeks after treatment
Outline: as §1

Glycine max [9] = test: Pre-emergence test; details: 3 weeks after treatment
Outline: as §1

Orysa sativa [10] = test: Pre-emergence test; details: 3 weeks after treatment
Outline: as §1

Echinochloa crus-galli [11] = test: Pre-emergence test; details: 3 weeks after treatment
Outline: as §1

Setaria viridis [12] = test: Pre-emergence test; details: 3 weeks after treatment
Outline: as §1

Zea mays [13] = test: Pre-emergence test; details: 3 weeks after treatment
Outline: as §1

Ambrosia artemisifolia [14] = test: Pre-emergence test; details: 3 weeks after treatment
Outline: as §1

Abutilon theophrasti [15] = test: Post-emergence herbicidal activity test; details: 2-4 weeks after treatment
Outline: (§2)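 Greenhouse-grown seedlings treated by foliar spray with aqueous dilutions of acetone solutions, dose range approximately 0.025 to 0.4 kg/ha of compound per pot. Ratings assigned 2 to 4 weeks post-application.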

Galium aparine [16] = test: Post-emergence herbicidal activity test; details: 2-4 weeks after treatment
Outline: as §2

Digitaria sanguinalis [17] = test: Post-emergence herbicidal activity test; details: 2-4 weeks after treatment
Outline: as §2

Matricaria inodora [18] = test: Post-emergence herbicidal activity test; details: 2-4 weeks after treatment
Outline: as §2

Triticum aestivum [19] = test: Post-emergence herbicidal activity test; details: 2-4 weeks after treatment
Outline: as §2

Alopecurus myosuroides [20] = test: Post-emergence herbicidal activity test; details: 2-4 weeks after treatment
Outline: as §2

Cassia obtusifolia [21] = test: Post-emergence herbicidal activity test; details: 2-4 weeks after treatment
Outline: as §2

Ipomoea hederacea [22] = test: Post-emergence herbicidal activity test; details: 2-4 weeks after treatment
Outline: as §2

Glycine max [23] = test: Post-emergence herbicidal activity test; details: 0.100 kg/ha, 2-4 weeks after treatment
Outline: as §2

Orysa sativa [24] = test: Post-emergence herbicidal activity test; details: 2-4 weeks after treatment
Outline: as §2

Echinochloa crus-galli [25] = test: Post-emergence herbicidal activity test; details: 2-4 weeks after treatment
Outline: as §2

Setaria viridis [26] = test: Post-emergence herbicidal activity test; details: 2-4 weeks after treatment
Outline: as §2

Zea mays [27] = test: Post-emergence herbicidal activity test; details: 2-4 weeks after treatment
Outline: as §2

Stellaria media = test: Post-emergence herbicidal activity test; details: 2-4 weeks after treatment
Outline: as §2

Ambrosia artemisifolia [28] = test: Post-emergence herbicidal activity test; details: 2-4 weeks after treatment
Outline: as §2

With `Cc1cc(Oc2cc(C(F)(F)F)nn2C)nc(C#Cc2ccccc2)n1` [Example 161] the “Assessment (pre-emergence application) ABUTH” value (Abutilon theophrasti [1]; 0.025 kg/ha) was 2 (2-Slight effect), the “Assessment (pre-emergence application) ABUTH” value (Abutilon theophrasti [1]; 0.100 kg/ha) was 4 (4-Injury) and the “Assessment (pre-emergence application) ABUTH” value (Abutilon theophrasti [1]; 0.400 kg/ha) was 4 (4-Injury). For the same compound, the “Assessment (pre-emergence application) GALAP” value (Galium aparine [2]; 0.025 kg/ha) was 1 (1-Trace effect), the “Assessment (pre-emergence application) GALAP” value (Galium aparine [2]; 0.100 kg/ha) was 1 (1-Trace effect) and the “Assessment (pre-emergence application) GALAP” value (Galium aparine [2]; 0.400 kg/ha) was 3 (3-Moderate effect). For the same compound, the “Assessment (pre-emergence application) DIGSA” value (Digitaria sanguinalis [3]; 0.025 kg/ha) was 1 (1-Trace effect), the “Assessment (pre-emergence application) DIGSA” value (Digitaria sanguinalis [3]; 0.100 kg/ha) was 3 (3-Moderate effect) and the “Assessment (pre-emergence application) DIGSA” value (Digitaria sanguinalis [3]; 0.400 kg/ha) was 9 (9-Complete kill). For the same compound, the “Assessment (pre-emergence application) MATIN” value (Matricaria inodora [4]; 0.025 kg/ha) was 3 (3-Moderate effect), the “Assessment (pre-emergence application) MATIN” value (Matricaria inodora [4]; 0.100 kg/ha) was 4 (4-Injury) and the “Assessment (pre-emergence application) MATIN” value (Matricaria inodora [4]; 0.400 kg/ha) was 8 (8-Approaching complete kill). For the same compound, the “Assessment (pre-emergence application) TRZWA” value (Triticum aestivum [5]; 0.025 kg/ha) was 0 (0-No effect), the “Assessment (pre-emergence application) TRZWA” value (Triticum aestivum [5]; 0.100 kg/ha) was 0 (0-No effect) and the “Assessment (pre-emergence application) TRZWA” value (Triticum aestivum [5]; 0.400 kg/ha) was 0 (0-No effect). For the same compound, the “Assessment (pre-emergence application) ALOMY” value (Alopecurus myosuroides [6]; 0.025 kg/ha) was 9 (9-Complete kill), the “Assessment (pre-emergence application) ALOMY” value (Alopecurus myosuroides [6]; 0.100 kg/ha) was 1 (1-Trace effect) and the “Assessment (pre-emergence application) ALOMY” value (Alopecurus myosuroides [6]; 0.400 kg/ha) was 3 (3-Moderate effect). The “Assessment (pre-emergence application) CASOB” value (Cassia obtusifolia [7]; 0.025 kg/ha) was 0 (0-No effect), the “Assessment (pre-emergence application) CASOB” value (Cassia obtusifolia [7]; 0.100 kg/ha) was 0 (0-No effect) and the “Assessment (pre-emergence application) CASOB” value (Cassia obtusifolia [7]; 0.400 kg/ha) was 0 (0-No effect). The “Assessment (pre-emergence application) IPOHE” value (Ipomoea hederacea [8]; 0.025 kg/ha) was 0 (0-No effect), the “Assessment (pre-emergence application) IPOHE” value (Ipomoea hederacea [8]; 0.100 kg/ha) was 3 (3-Moderate effect) and the “Assessment (pre-emergence application) IPOHE” value (Ipomoea hederacea [8]; 0.400 kg/ha) was 3 (3-Moderate effect). For the same compound, the “Assessment (pre-emergence application) LAMPU” value (Lamium purpureum; 0.025 kg/ha) was 0 (0-No effect), the “Assessment (pre-emergence application) LAMPU” value (Lamium purpureum; 0.100 kg/ha) was 5 (5-Definite injury) and the “Assessment (pre-emergence application) LAMPU” value (Lamium purpureum; 0.400 kg/ha) was 7 (7-Good herbicidal effect). For the same compound, the “Assessment (pre-emergence application) GLXMA” value (Glycine max [9]; 0.025 kg/ha) was 0 (0-No effect), the “Assessment (pre-emergence application) GLXMA” value (Glycine max [9]; 0.100 kg/ha) was 0 (0-No effect) and the “Assessment (pre-emergence application) GLXMA” value (Glycine max [9]; 0.400 kg/ha) was 1 (1-Trace effect). For the same compound, the “Assessment (pre-emergence application) ORYSA” value (Orysa sativa [10]; 0.025 kg/ha) was 0 (0-No effect), the “Assessment (pre-emergence application) ORYSA” value (Orysa sativa [10]; 0.100 kg/ha) was 1 (1-Trace effect) and the “Assessment (pre-emergence application) ORYSA” value (Orysa sativa [10]; 0.400 kg/ha) was 1 (1-Trace effect). For the same compound, the “Assessment (pre-emergence application) ECHCG” value (Echinochloa crus-galli [11]; 0.025 kg/ha) was 0 (0-No effect), the “Assessment (pre-emergence application) ECHCG” value (Echinochloa crus-galli [11]; 0.100 kg/ha) was 1 (1-Trace effect) and the “Assessment (pre-emergence application) ECHCG” value (Echinochloa crus-galli [11]; 0.400 kg/ha) was 3 (3-Moderate effect). The “Assessment (pre-emergence application) SETVI” value (Setaria viridis [12]; 0.025 kg/ha) was 2 (2-Slight effect), the “Assessment (pre-emergence application) SETVI” value (Setaria viridis [12]; 0.100 kg/ha) was 4 (4-Injury) and the “Assessment (pre-emergence application) SETVI” value (Setaria viridis [12]; 0.400 kg/ha) was 7 (7-Good herbicidal effect). The “Assessment (pre-emergence application) ZEAMX” value (Zea mays [13]; 0.025 kg/ha) was 0 (0-No effect), the “Assessment (pre-emergence application) ZEAMX” value (Zea mays [13]; 0.100 kg/ha) was 0 (0-No effect) and the “Assessment (pre-emergence application) ZEAMX” value (Zea mays [13]; 0.400 kg/ha) was 0 (0-No effect). The “Assessment (pre-emergence application) MBEL” value (Ambrosia artemisifolia [14]; 0.025 kg/ha) was 2 (2-Slight effect), the “Assessment (pre-emergence application) MBEL” value (Ambrosia artemisifolia [14]; 0.100 kg/ha) was 2 (2-Slight effect) and the “Post-emergence application ABUTH” value (Abutilon theophrasti [15]; 0.100 kg/ha) was 4 (4-Injury). The “Post-emergence application ABUTH” value (Abutilon theophrasti [15]; 0.400 kg/ha) was 5 (5-Definite injury), the “Post-emergence application GALAP” value (Galium aparine [16]; 0.100 kg/ha) was 7 (7-Good herbicidal effect) and the “Post-emergence application GALAP” value (Galium aparine [16]; 0.400 kg/ha) was 8 (8-Approaching complete kill). For the same compound, the “Post-emergence application DIGSA” value (Digitaria sanguinalis [17]; 0.100 kg/ha) was 2 (2-Slight effect), the “Post-emergence application DIGSA” value (Digitaria sanguinalis [17]; 0.400 kg/ha) was 2 (2-Slight effect) and the “Post-emergence application MATIN” value (Matricaria inodora [18]; 0.100 kg/ha) was 3 (3-Moderate effect). For the same compound, the “Post-emergence application MATIN” value (Matricaria inodora [18]; 0.400 kg/ha) was 4 (4-Injury), the “Post-emergence application TRZWA” value (Triticum aestivum [19]; 0.100 kg/ha) was 2 (2-Slight effect) and the “Post-emergence application TRZWA” value (Triticum aestivum [19]; 0.400 kg/ha) was 2 (2-Slight effect). For the same compound, the “Post-emergence application ALOMY” value (Alopecurus myosuroides [20]; 0.100 kg/ha) was 2 (2-Slight effect), the “Post-emergence application ALOMY” value (Alopecurus myosuroides [20]; 0.400 kg/ha) was 3 (3-Moderate effect) and the “Post-emergence application CASOB” value (Cassia obtusifolia [21]; 0.100 kg/ha) was 1 (1-Trace effect). The “Post-emergence application CASOB” value (Cassia obtusifolia [21]; 0.400 kg/ha) was 3 (3-Moderate effect), the “Post-emergence application IPOHE” value (Ipomoea hederacea [22]; 0.100 kg/ha) was 9 (9-Complete kill) and the “Post-emergence application IPOHE” value (Ipomoea hederacea [22]; 0.400 kg/ha) was 9 (9-Complete kill). For the same compound, the “Post-emergence application GLXMA” value (Glycine max [23]) was 3 (3-Moderate effect), the “Post-emergence application ORYSA” value (Orysa sativa [24]; 0.100 kg/ha) was 2 (2-Slight effect) and the “Post-emergence application ORYSA” value (Orysa sativa [24]; 0.400 kg/ha) was 3 (3-Moderate effect). For the same compound, the “Post-emergence application ECHCG” value (Echinochloa crus-galli [25]; 0.100 kg/ha) was 1 (1-Trace effect), the “Post-emergence application ECHCG” value (Echinochloa crus-galli [25]; 0.400 kg/ha) was 2 (2-Slight effect) and the “Post-emergence application SETVI” value (Setaria viridis [26]; 0.100 kg/ha) was 4 (4-Injury). For the same compound, the “Post-emergence application SETVI” value (Setaria viridis [26]; 0.400 kg/ha) was 6 (6-Herbicidal effect), the “Post-emergence application ZEAMX” value (Zea mays [27]; 0.100 kg/ha) was 2 (2-Slight effect) and the “Post-emergence application ZEAMX” value (Zea mays [27]; 0.400 kg/ha) was 2 (2-Slight effect). The “Post-emergence application STEME” value (Stellaria media; 0.100 kg/ha) was 2 (2-Slight effect), the “Post-emergence application STEME” value (Stellaria media; 0.400 kg/ha) was 4 (4-Injury) and the “Post-emergence application AMBEL” value (Ambrosia artemisifolia [28]; 0.100 kg/ha) was 5 (5-Definite injury). The “Post-emergence application AMBEL” value (Ambrosia artemisifolia [28]; 0.400 kg/ha) was 5 (5-Definite injury).
